54 molecules from patent publication US12448373B2, “Azetidinyl-acetamides as CXCR7 inhibitors” (CHEMOCENTRYX, INC., priority 2021, dated 2025) can be followed below.

The target in this experiment is T1, CXCR7 (Homo sapiens, UniProt P25106).
T1 construct: expressed in transfected cells; host or cells: CHO cells (CHO-CXCR7), transgenes maintained with Hygromycin B and G418
T1 sequence (P25106 whole entry): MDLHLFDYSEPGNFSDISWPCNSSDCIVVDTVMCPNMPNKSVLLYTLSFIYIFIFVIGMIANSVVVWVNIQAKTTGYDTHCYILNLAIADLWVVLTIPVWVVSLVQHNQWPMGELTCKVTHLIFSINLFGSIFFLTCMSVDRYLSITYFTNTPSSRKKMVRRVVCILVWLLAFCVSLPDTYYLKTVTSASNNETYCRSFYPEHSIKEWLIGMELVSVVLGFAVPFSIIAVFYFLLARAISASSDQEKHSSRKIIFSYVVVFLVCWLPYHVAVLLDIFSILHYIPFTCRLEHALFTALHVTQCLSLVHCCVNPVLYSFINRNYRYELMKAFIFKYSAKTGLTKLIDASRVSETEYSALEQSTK
The experiment in a line: CXCR7 β-arrestin recruitment assay in CHO-CXCR7 cells (ProLink/EA β-galactosidase complementation), induced by human SDF-1a. Type of experiment: cell-based. As to conditions: assay buffer, SDF-1a at EC50 concentration. The essentials: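 CHO cells co-expressing ProLink-tagged CXCR7 and β-arrestin-EA were pre-plated overnight, then given compound and human SDF-1α at its same-day EC50. After 1.5 h at 37 °C, complemented β-galactosidase was read from 0.4 mM 3-carboxyumbelliferyl β-D-galactopyranoside (30 min, 37 °C; ex 360/em 465 nm). IC50 by 3-parameter fit.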
In general terms: Activated receptors often draw arrestin, which recruitment assays turn into a signal.
Broadly, the IC50 is the concentration at which inhibition is half-maximal. A high value points to weaker potency in that assay. Regarding `CC(C)(NC(=O)CC1(NC(=O)c2cc(-c3ccc(F)cc3F)on2)CN([C@H]2CC[C@](C)(O)CC2)C1)c1cc(Cl)ccc1Cl` [Example 1.088], the IC50 was less than 5 nM.
`CC(C)(NC(=O)CC1(NC(=O)c2cc(-c3ccc(F)cc3)on2)CN([C@H]2CC[C@@](C)(O)CC2)C1)c1ccccc1` [Example 1.089] yielded an IC50 of 5 to 100 nM.
`Cc1cc(Cl)cc(C(C)(C)NC(=O)CC2(NC(=O)c3cc(-c4ccc(F)cc4F)on3)CN([C@H]3CC[C@](C)(O)CC3)C2)c1` [Example 1.090] showed a half-maximal inhibitory concentration (IC50) of less than 5 nM.
To `CC(C)(NC(=O)CC1(NC(=O)c2cc(-c3ccc(F)cc3)on2)CN([C@H]2CC[C@](C)(O)CC2)C1)c1ccccc1` [Example 1.091] belongs 5 to 100 nM; to `CC(C)(NC(=O)CC1(NC(=O)c2cc(-c3ccc(F)cc3F)on2)CN(C2CCC3(CC2)COC3)C1)c1cc(Cl)cc(Cl)c1` [Example 1.092], 5 to 100 nM.
`CC(C)CN1CC(CC(=O)NC(C)(C)c2cc(Cl)cc(Cl)c2)(NC(=O)c2cc(-c3ccc(F)cc3F)on2)C1` [Example 1.093] registered an IC50 of 5 to 100 nM.
In the case of `CC(C)(NC(=O)CC1(NC(=O)c2cc(-c3ccc(F)cc3F)on2)CN(C2CCCC2)C1)c1ccccn1` [Example 1.094], the IC50 is 5 to 100 nM.
`CC(C)(NC(=O)CC1(NC(=O)c2cc(-c3ccc(F)cc3F)on2)CN(C2CCOCC2)C1)c1cccc(Cl)c1` [Example 1.095] gave an IC50 of 5 to 100 nM.
Under `CC(C)(F)CN1CC(CC(=O)NC(C)(C)c2cccc(Cl)c2)(NC(=O)c2cc(-c3ccc(F)cc3F)on2)C1` [Example 1.096] stands 100 to 1000 nM; under `CC(C)(NC(=O)CC1(NC(=O)c2cc(-c3ccc(F)cc3F)on2)CN([C@H]2CC[C@](C)(O)CC2)C1)c1c[nH]c2ncccc12` [Example 1.097], 5 to 100 nM; under `C[C@]1(O)CC[C@@H](N2CC(CC(=O)NCc3ccccn3)(NC(=O)c3cc(-c4ccc(F)cc4F)on3)C2)CC1` [Example 1.098], 1000 to 20000 nM.
To `C[C@]1(O)CC[C@H](N2CC(CC(=O)NCc3ccccn3)(NC(=O)c3cc(-c4ccc(F)cc4F)on3)C2)CC1` [Example 1.099] belongs 1000 to 20000 nM; to `C[C@]1(O)CC[C@H](N2CC(CC(=O)NCc3cccc4[nH]ccc34)(NC(=O)c3cc(-c4ccc(F)cc4F)on3)C2)CC1` [Example 1.100], less than 5 nM.
Under `CC(C)(NC(=O)CC1(NC(=O)c2cc(-c3ccc(F)cc3F)on2)CN([C@H]2CC[C@](C)(O)CC2)C1)c1ccnc2[nH]ccc12` [Example 1.101] stands 5 to 100 nM; under `CC(C)(NC(=O)CC1(NC(=O)c2cc(-c3ccc(F)cc3F)on2)CN(C2CCC3(CCOCC3)CC2)C1)c1ccccn1` [Example 1.102], 100 to 1000 nM; under `C[C@]1(O)CC[C@H](N2CC(CC(=O)NC3(c4cccc(Cl)c4)COC3)(NC(=O)c3cc(-c4ccc(F)cc4F)on3)C2)CC1` [Example 1.103], 5 to 100 nM.
Molecule `CC(C)(F)CN1CC(CC(=O)NC(C)(C)c2ccccn2)(NC(=O)c2cc(-c3ccc(F)cc3F)on2)C1` [Example 1.104] gave an IC50 of 1000 to 20000 nM.
On to `CC1(C)CCC(N2CC(CC(=O)NC(C)(C)c3cc(Cl)cc(Cl)c3)(NC(=O)c3cc(-c4ccc(F)cc4F)on3)C2)CC1` [Example 1.105], for which the half-inhibitory concentration (IC50) was less than 5 nM.
Under `Cc1cc(C)nc(C(C)(C)NC(=O)CC2(NC(=O)c3cc(-c4ccc(F)cc4F)on3)CN([C@H]3CC[C@](C)(O)CC3)C2)c1` [Example 1.106] stands less than 5 nM; under `CC(C)(NC(=O)CC1(NC(=O)c2cc(-c3ccc(F)cc3F)on2)CN([C@H]2CC[C@@](C)(C(=O)O)CC2)C1)c1ccccn1` [Example 1.107], 1000 to 20000 nM.
As to `CC(C)(NC(=O)CC1(NC(=O)c2cc(-c3ccc(F)cc3F)on2)CN([C@H]2CC[C@](C)(C(=O)O)CC2)C1)c1ccccn1` [Example 1.108], the half-maximal inhibitory concentration (IC50) lay in the range of 100 to 1000 nM.
To `C[C@]1(O)CC[C@@H](N2CC(CC(=O)NCc3cccc(Cl)c3)(NC(=O)c3cc(-c4ccc(F)cc4F)on3)C2)CC1` [Example 1.109] belongs 100 to 1000 nM.
Under `C[C@]1(O)CC[C@H](N2CC(CC(=O)NCc3cccc(Cl)c3)(NC(=O)c3cc(-c4ccc(F)cc4F)on3)C2)CC1` [Example 1.110] stands 1000 to 20000 nM; under `Cc1cc(C(C)(C)NC(=O)CC2(NC(=O)c3cc(-c4ccc(F)cc4F)on3)CN(C3CCC(C)(O)CC3)C2)cc(C)n1` (stereo not drawn) [Example 1.111], 5 to 100 nM.
The molecule `Cc1cc(C(C)(C)NC(=O)CC2(NC(=O)c3cc(-c4ccc(F)cc4F)on3)CN([C@H]3CC[C@](C)(O)CC3)C2)cc(C)n1` [Example 1.112] had a half-inhibitory concentration (IC50) of 5 to 100 nM.
Under `CC(C)(NC(=O)CC1(NC(=O)c2cc(-c3ccc(F)cc3F)on2)CN(CC2CC2)C1)c1cccc(Cl)c1` [Example 1.113] stands 5 to 100 nM.
`Cc1cc(C(C)(C)NC(=O)CC2(NC(=O)c3cc(-c4ccc(F)cc4F)on3)CN(CC3CC3)C2)ccn1` [Example 1.114] had a half-maximal inhibitory concentration (IC50) of 5 to 100 nM.
`CC(C)(NC(=O)CC1(NC(=O)c2cc(-c3ccc(F)cc3F)on2)CN([C@H]2CC[C@@](C)(O)CC2)C1)c1cccc2cc[nH]c12` [Example 1.115] displayed an IC50 of less than 5 nM.
To `CC(C)(NC(=O)CC1(NC(=O)c2cc(-c3ccc(F)cc3F)on2)CN([C@H]2CC[C@](C)(O)CC2)C1)c1cccc2cc[nH]c12` [Example 1.116] belongs less than 5 nM; to `COc1cccc(C(C)(C)NC(=O)CC2(NC(=O)c3cc(-c4ccc(F)cc4F)on3)CN(CC3CC3)C2)c1` [Example 1.117], 100 to 1000 nM; to `COc1cc(C)cc(C(C)(C)NC(=O)CC2(NC(=O)c3cc(-c4ccc(F)cc4F)on3)CN([C@H]3CC[C@@](C)(O)CC3)C2)c1` [Example 1.118], 5 to 100 nM.
As for `COc1cc(C)cc(C(C)(C)NC(=O)CC2(NC(=O)c3cc(-c4ccc(F)cc4F)on3)CN([C@H]3CC[C@](C)(O)CC3)C2)c1` [Example 1.119], the half-maximal inhibitory concentration (IC50) lay within 5 to 100 nM.
`CC(C)CN1CC(CC(=O)NC(C)(C)c2cccc(Cl)c2)(NC(=O)c2cc(-c3ccc(F)cc3F)on2)C1` [Example 1.120] came in with an IC50 of 5 to 100 nM.
Regarding `Cc1cccc(C(C)(C)NC(=O)CC2(NC(=O)c3cc(-c4ccc(F)cc4F)on3)CN([C@H]3CC[C@](C)(O)CC3)C2)n1` [Example 1.121], the IC50 is less than 5 nM.
Regarding `Cc1cc(C(C)(C)NC(=O)CC2(NC(=O)c3cc(-c4ccc(F)cc4F)on3)CN(CC(C)C)C2)ccn1` [Example 1.122], the half-inhibitory concentration (IC50) was in the range of 5 to 100 nM.
To `CC(C)(NC(=O)CC1(NC(=O)c2cc(-c3ccc(F)cc3F)on2)CN([C@H]2CC[C@@](C)(O)CC2)C1)c1cc(F)cc(Cl)c1` [Example 1.123] belongs less than 5 nM.
The molecule `CC(C)(NC(=O)CC1(NC(=O)c2cc(-c3ccc(F)cc3F)on2)CN([C@H]2CC[C@](C)(O)CC2)C1)c1cc(F)cc(Cl)c1` [Example 1.124] returned an IC50 of less than 5 nM.
Under `Cn1ccc2c(C(C)(C)NC(=O)CC3(NC(=O)c4cc(-c5ccc(F)cc5F)on4)CN([C@H]4CC[C@@](C)(O)CC4)C3)cccc21` [Example 1.125] stands 5 to 100 nM.
As for `Cn1ccc2c(C(C)(C)NC(=O)CC3(NC(=O)c4cc(-c5ccc(F)cc5F)on4)CN([C@H]4CC[C@](C)(O)CC4)C3)cccc21` [Example 1.126], the IC50 is 5 to 100 nM.
To `C[C@]1(O)CC[C@@H](N2CC(CC(=O)NCc3ccccc3)(NC(=O)c3cc(-c4ccc(F)cc4F)on3)C2)CC1` [Example 1.127] belongs 1000 to 20000 nM; to `C[C@]1(O)CC[C@H](N2CC(CC(=O)NCc3ccccc3)(NC(=O)c3cc(-c4ccc(F)cc4F)on3)C2)CC1` [Example 1.128], 1000 to 20000 nM; to `CC(C)CN1CC(CC(=O)NC(C)(C)c2ccccn2)(NC(=O)c2cc(-c3ccc(F)cc3F)on2)C1` [Example 1.129], 5 to 100 nM.
To `CC1(CN2CC(CC(=O)NC(C)(C)c3cccc(C(F)(F)F)n3)(NC(=O)c3cc(-c4ccc(F)cc4F)on3)C2)COC1` [Example 1.130] belongs 1000 to 20000 nM; to `Cc1cc(C)nc(C(C)(C)NC(=O)CC2(NC(=O)c3cc(-c4ccc(F)cc4F)on3)CN(CC3(C)COC3)C2)n1` [Example 1.131], 1000 to 20000 nM.
Under `CC(C)(NC(=O)CC1(NC(=O)c2cc(-c3ccc(F)cc3F)on2)CN([C@H]2CC[C@@](C)(O)CC2)C1)c1cc(Cl)ccc1F` [Example 1.132] stands less than 5 nM; under `CC(C)(NC(=O)CC1(NC(=O)c2cc(-c3ccc(F)cc3F)on2)CN([C@H]2CC[C@](C)(O)CC2)C1)c1cc(Cl)ccc1F` [Example 1.133], less than 5 nM; under `CC(C)(O)CN1CC(CC(=O)NC(C)(C)c2cc(Cl)ccc2F)(NC(=O)c2cc(-c3ccc(F)cc3F)on2)C1` [Example 1.134], 5 to 100 nM.
On to `CC(C)(NC(=O)CC1(NC(=O)c2cc(-c3ccc(F)cc3F)on2)CN(CC2COC2)C1)c1cccc(Cl)c1` [Example 1.135], for which the half-inhibitory concentration (IC50) lay within 100 to 1000 nM.
As for `Cc1cc(C(C)(C)NC(=O)CC2(NC(=O)c3cc(-c4ccc(F)cc4F)on3)CN(CC3COC3)C2)ccn1` [Example 1.136], the IC50 is 100 to 1000 nM.
In turn, `CC(C)(O)CN1CC(CC(=O)NC(C)(C)c2cc(F)cc(F)c2)(NC(=O)c2cc(-c3ccc(F)cc3F)on2)C1` [Example 1.137] registered a 50% inhibitory concentration (IC50) of 5 to 100 nM.
Consider `CC(C)(O)CN1CC(CC(=O)NC(C)(C)c2ccc(Cl)cc2)(NC(=O)c2cc(-c3ccc(F)cc3F)on2)C1` [Example 1.138], for which the IC50 lay in the range of 100 to 1000 nM.
`Cc1cncc(C(C)(C)NC(=O)CC2(NC(=O)c3cc(-c4ccc(F)cc4F)on3)CN([C@H]3CC[C@@](C)(O)CC3)C2)c1` [Example 1.139] displayed an IC50 of 5 to 100 nM.
As for `Cc1cncc(C(C)(C)NC(=O)CC2(NC(=O)c3cc(-c4ccc(F)cc4F)on3)CN([C@H]3CC[C@](C)(O)CC3)C2)c1` [Example 1.140], the IC50 lay within 5 to 100 nM.
To `COc1cncc(C(C)(C)NC(=O)CC2(NC(=O)c3cc(-c4ccc(F)cc4F)on3)CN([C@H]3CC[C@@](C)(O)CC3)C2)c1` [Example 1.141] belongs 5 to 100 nM.
